Assay results from patent US20030229451A1, “Methods and systems for analyzing complex biological systems” (priority 2001, published 2003).

System: Saccharomyces cerevisiae wild type strain BY4743
Experiment: AF1 metabolite analysis (GC-MS, LC-MS) of yeast cells treated with antifungal drugs
Assay type: cell-based
Conditions: for # Compounds perturbed: 2x MIC, two hours

OC(Cn1cncn1)(Cn1cncn1)c1ccc(F)cc1F [Fluconazole]
# Compounds perturbed (P < 0.05): 2 | # Compounds perturbed (P < 0.1): 6 | Fold Change, alanine (platform GC): 0.3084 | Fold Change, asparagine (platform GC): 0.3999 | Fold Change, aspartic acid (platform GC): 0.4337 | Fold Change, campesterol (platform GC): 0 | Fold Change, desmosterol (platform GC): 0 | Fold Change, disaccaride1 (platform GC): 0.3883 | Fold Change, disaccaride2 (platform GC): 0.1517 | Fold Change, disaccaride3 (platform GC): 0.5803 | Fold Change, ergosterol (platform GC): 0.948 | Fold Change, fucosterol (platform GC): 6.665 | Fold Change, glutamine (platform GC): 0.5242 | Fold Change, glycanopyrose (platform GC): 1.202 | Fold Change, glycerol (platform GC): 0.2187 | Fold Change, glycine (platform GC): −0.1037 | Fold Change, hexadecanoic acid (platform GC): 0.1343 | Fold Change, iso citric acid (platform GC): 0.3923 | Fold Change, isoleucine (platform GC): 0.391 | Fold Change, lanosterol (platform GC): 8.462 | Fold Change, leucine (platform GC): 0.3387 | Fold Change, lysine (platform GC): 0.3412 | Fold Change, malic acid (platform GC): 0.3975 | Fold Change, mevalonic acid lactone (platform GC): 0.2333 | Fold Change, octadecanoic acid (platform GC): 0.082 | Fold Change, oleic acid (platform GC): −0.3073 | Fold Change, ornithine2 (platform GC): 0.4473 | Fold Change, ornithine3 (platform GC): 0.2647 | Fold Change, palmiteliadic acid (platform GC): −0.08867 | Fold Change, phenylalanine (platform GC): 0.2774 | Fold Change, phosphate (platform GC): −0.508 | Fold Change, pyrimidine (platform GC): 0.2457 | Fold Change, 2-ketobutyric acid (platform nLC): −0.9992 | Fold Change, 2-ketoglutaric (platform nLC): −0.9995 | Fold Change, 3-indolylacetonitri (platform nLC): −0.9998 | Fold Change, 4-methylcatechol (platform nLC): 0 | Fold Change, 4aminobutyrate/dimg (platform nLC): 0.1384 | Fold Change, 5hydroxyLtryptophan (platform nLC): 0 | Fold Change, 6-benzylaminopurine (platform nLC): 0 | Fold Change, DLaminoadipic acid (platform nLC): 0.443 | Fold Change, NacetylDglucosamine (platform nLC): 0 | Fold Change, NacetylLglutamate (platform nLC): 0.1369 | Fold Change, NacetylLornithine (platform nLC): 0 | Fold Change, abscisic acid (platform nLC): 0 | Fold Change, aconitic acid (platform nLC): 0.6483 | Fold Change, adenine (platform nLC): 0 | Fold Change, adenosine (platform nLC): 0 | Fold Change, alanine (platform nLC): 0.399 | Fold Change, allantoic acid (platform nLC): 0.2392 | Fold Change, allantoin (platform nLC): 0.3942 | Fold Change, anthranilic acid (platform nLC): 0 | Fold Change, arginine (platform nLC): 0.6484 | Fold Change, argininosuccinate (platform nLC): 0 | Fold Change, asparagine (platform nLC): 0.3545 | Fold Change, aspartic (platform nLC): 0.4993 | Fold Change, benzoic acid (platform nLC): 0. | Fold Change, biotin (platform nLC): 0.3455 | Fold Change, caffeic acid (platform nLC): −0.4711 | Fold Change, catechol (platform nLC): 0 | Fold Change, cinnamic acid (platform nLC): 0 | Fold Change, citricanoic/itaconi. (platform nLC): 0 | Fold Change, citrulline (platform nLC): 0 | Fold Change, coumaric acid (platform nLC): 0 | Fold Change, cytidine (platform nLC): −0.7969 | Fold Change, cytosine (platform nLC): 0 | Fold Change, decanoic acid (platform nLC): 0.1846 | Fold Change, diaminopimelic acid (platform nLC): 0 | Fold Change, dihydrofolic acid (platform nLC): 0 | Fold Change, estrone (platform nLC): 0 | Fold Change, farnesol (platform nLC): 0 | Fold Change, folic acid (platform nLC): 0 | Fold Change, fumaric/3m2oxobutan (platform nLC): 0.6009 | Fold Change, gallic acid (platform nLC): 0.5071 | Fold Change, gibberellic (platform nLC): 0 | Fold Change, glucosamine6PO4 (platform nLC): −0.9951 | Fold Change, glutamic/acetylseri (platform nLC): 0.3842 | Fold Change, glutamine/lysine (platform nLC): 0.3309 | Fold Change, guanine (platform nLC): 0 | Fold Change, guanosine (platform nLC): −0.993 | Fold Change, histidine (platform nLC): 0 | Fold Change, homogentisic/uric (platform nLC): 0 | Fold Change, hydrocortisone (platform nLC): 0 | Fold Change, hypoxanthine (platform nLC): 0.7757 | Fold Change, indole3pyruvic acid (platform nLC): 0 | Fold Change, inostol/glucos/sorb (platform nLC): −0.4744 | Fold Change, isocitric/citric/qu (platform nLC): 1.457 | Fold Change, jasmonic acid (platform nLC): 0 | Fold Change, kinetin (platform nLC): 0 | Fold Change, lactic acid (platform nLC): −0.0439 | Fold Change, lauric acid (platform nLC): 0.3906 | Fold Change, leucine/isoleucine/ (platform nLC): 0.3306 | Fold Change, luteolin (platform nLC): 0 | Fold Change, malic acid (platform nLC): 0.4366 | Fold Change, malonic acid (platform nLC): 0 | Fold Change, menthol* (platform nLC): 0.04758 | Fold Change, methionine (platform nLC): 0 | Fold Change, nicotinic acid (platform nLC): 2.443 | Fold Change, nopaline (platform nLC): 0.3432 | Fold Change, oleic acid (platform nLC): −0.01684 | Fold Change, ornithine (platform nLC): 0.3508 | Fold Change, orotic acid (platform nLC): 0 | Fold Change, palmitic acid (platform nLC): −0.0233 | Fold Change, phenylalanine (platform nLC): 0.1527 | Fold Change, phenylpyruvic acid (platform nLC): 0 | Fold Change, phosphoenolpyruvate (platform nLC): 0 | Fold Change, pinitol (platform nLC): 0 | Fold Change, pipecolic acid (platform nLC): 0.2901 | Fold Change, porphobilinogen (platform nLC): 0 | Fold Change, proline (platform nLC): 0.4164 | Fold Change, pyridoxine (platform nLC): −0.04201 | Fold Change, 4-aminobenzoic acid (platform pLC): 0 | Fold Change, 4-methylcatechol (platform pLC): 0 | Fold Change, 4ambutyrate/dimglyc (platform pLC): −0.4383 | Fold Change, 5hydroxyLtryptophan (platform pLC): 0 | Fold Change, 6benzylaminopurine (platform pLC): 0 | Fold Change, DL-aminoadipic acid (platform pLC): 0.1155 | Fold Change, NacetylDglucosamine (platform pLC): 0 | Fold Change, NacetylLglutamate (platform pLC): 0 | Fold Change, NacetylLornithine (platform pLC): 0.1584 | Fold Change, abscisic acid (platform pLC): 0 | Fold Change, adenine (platform pLC): −0.09439 | Fold Change, adenosine (platform pLC): 0 | Fold Change, alanine/sarcosine (platform pLC): 0.1269 | Fold Change, allantoic acid (platform pLC): 0 | Fold Change, anthranilic acid (platform pLC): 0 | Fold Change, arginine (platform pLC): 0.1179 | Fold Change, argininosuccinate (platform pLC): 0 | Fold Change, asparagine (platform pLC): 0.3192 | Fold Change, aspartic acid (platform pLC): 0.214 | Fold Change, biotin (platform pLC): 0 | Fold Change, caffeine (platform pLC): 0 | Fold Change, citric acid TME (platform pLC): 0 | Fold Change, citrulline (platform pLC): 0.08252 | Fold Change, cytidine (platform pLC): 0 | Fold Change, cytosine (platform pLC): 0 | Fold Change, diaminopimelic acid (platform pLC): 0 | Fold Change, dihydrofolic acid (platform pLC): 0 | Fold Change, dipicolinic acid (platform pLC): 0 | Fold Change, folic acid (platform pLC): 0 | Fold Change, glucosamine (platform pLC): 0 | Fold Change, glucosamine6PO4 (platform pLC): 0 | Fold Change, glutamate (platform pLC): −0.06179 | Fold Change, glutamine/lysine (platform pLC): 0.2242 | Fold Change, glutathione (platform pLC): −0.05832 | Fold Change, guanosine (platform pLC): −0.9981 | Fold Change, histidine (platform pLC): 0 | Fold Change, hydrocortisone (platform pLC): 0 | Fold Change, hypoxanthine (platform pLC): 0.1298 | Fold Change, itaconic acid dimes (platform pLC): 0 | Fold Change, kinetin (platform pLC): 0 | Fold Change, leucine/isoleucine/ (platform pLC): 0.1638 | Fold Change, luteolin (platform pLC): 0 | Fold Change, mannitol (platform pLC): 0.152 | Fold Change, methionine (platform pLC): −0.2906 | Fold Change, mevalonic lactone (platform pLC): −0.5175 | Fold Change, niacinamide (platform pLC): 0 | Fold Change, nicotinic acid (platform pLC): −0.7982 | Fold Change, nopaline (platform pLC): 0 | Fold Change, ornithine (platform pLC): 0.4775 | Fold Change, phenylalanine (platform pLC): −0.1809 | Fold Change, phosphoenolpyruvate (platform pLC): 0 | Fold Change, pipecolic acid (platform pLC): 0.2583 | Fold Change, progesterone (platform pLC): 0 | Fold Change, proline (platform pLC): 0.2075 | Fold Change, pyridoxine (platform pLC): −0.3831
